{
  "source": "patent US20200120909A1",
  "about": "“COMPOSITIONS AND METHODS FOR THE STUDY AND TREATMENT OF ACUTE KIDNEY INJURY” (THE JOHNS HOPKINS UNIVERSITY, priority 2014, published 2020)",
  "key": {"[1]": {"tested_on": "Nrf2", "assay": "Ex-vivo Nrf2 activation of purified mouse T cells, real-time PCR of Nrf2 target genes", "format": "cell-based", "procedure": "(§1) FIG. 11. […] RNA isolated from these cells was analyzed by quantitative real-time PCR for expression of Nrf2 target genes, NQO1, HO-1 and GCLM. […] Furthermore, we treated peripheral blood mononuclear cells (PBMCs) from healthy individuals and treated them with CDDO-Me (Bardoxolone), an Nrf2 activator related to triterpenopid derivative CDDO-Im.\nAntioxidant Gene Expression Analyses. Total RNA ([…]) from purified T cells was isolated with the RNeasy mini kit (Qiagen, Valencia, Calif.) and reverse transcribed using a high capacity cDNA synthesis kit (Life Technologies). A gene-specific TaqMan primer and probe sets were used to assess transcriptional status of Nrf2, Nqo1, Ho-1, Gclm, and Gclc in Quantstudio 12K flex real-time PCR (Life Technologies). The absolute expression values for each gene were normalized to that of b-actin and the relative gene expression values calculated."}, "[2]": {"tested_on": "Nrf2", "assay": "Nrf2 target gene expression in treated human peripheral blood mononuclear cells", "format": "cell-based", "procedure": "as §1"}, "[3]": {"tested_on": "acute kidney injury", "settings": "pharmacological activation of Nrf2 regulated antioxidant response; cited from earlier work"}, "[4]": {"tested_on": "T cells", "settings": "cited from earlier work; for TNF-a and IFN-g production: after CD3/CD28 activation; for T helper phenotype skewing: pharmacologic activation of Nrf2"}, "[5]": {"settings": "purified T cells from wild type mice, 20 nM and 50 nM, 24 hours"}},
  "data": [
    {"compound": "CC1(C)CC[C@]2(C(=O)n3ccnc3)CC[C@]3(C)[C@H](C(=O)C=C4[C@@]5(C)C=C(C#N)C(=O)C(C)(C)[C@@H]5CC[C@]43C)[C@@H]2C1", "note": "[CDDO-Im]", "values": [
      {"measurement": "HO-1 mRNA expression", "setting": "[1]; [5]", "value": "significant increase"},
      {"measurement": "NQO1 mRNA expression", "setting": "[1]; [5]", "value": "significant increase"},
      {"measurement": "activating Nrf2 regulated antioxidant gene expression", "setting": "[1]; purified mouse T cells, 20 and 50 μM", "value": "significantly effective"},
      {"measurement": "activating Nrf2 regulated antioxidant gene expression", "setting": "[2]; human PBMCs, 20 and 50 μM", "value": "significantly effective"},
      {"measurement": "protection from acute kidney injury", "setting": "[3]", "value": "can protect from acute kidney injury"}
    ]},
    {"compound": "COC(=O)[C@]12CCC(C)(C)C[C@H]1[C@H]1C(=O)C=C3[C@@]4(C)C=C(C#N)C(=O)C(C)(C)[C@@H]4CC[C@@]3(C)[C@]1(C)CC2", "note": "[CDDO-Me, bardoxolone methyl]", "values": [
      {"measurement": "gene expression of GCLM", "setting": "[2]; PBMCs from healthy individuals, p=0.01", "value": "significant increase"},
      {"measurement": "gene expression of NQO1", "setting": "[2]; PBMCs from healthy individuals, p=0.02", "value": "significant increase"},
      {"measurement": "gene expression of HO-1", "setting": "[2]; PBMCs from healthy individuals, p=0.05", "value": "significant increase"}
    ]},
    {"compound": "CC(C)(C)c1cc(O)ccc1O", "note": "[tertbutylhydroquinone, tert-butylhydroquinone]", "values": [
      {"measurement": "TNF-a and IFN-g production", "setting": "[4]", "value": "suppress"},
      {"measurement": "T helper phenotype skewing", "setting": "[4]", "value": "skew T cells toward a Th2 type phenotype"}
    ]},
    {"compound": "COc1ccc(O)c(C(C)(C)C)c1", "note": "[butylated hydroxyanisole]", "values": [
      {"measurement": "TNF-a and IFN-g production", "setting": "[4]", "value": "suppress"},
      {"measurement": "T helper phenotype skewing", "setting": "[4]", "value": "skew T cells toward a Th2 type phenotype"}
    ]}
  ]
}
